# Reference: patent US12059400B2, “Medical compound” (VERA SALUS RICERCA S.R.L., priority 2017, dated 2024)
# How the values were obtained:
# [1] = system: human ovarian carcinoma cells (OVCAR-3); test: Cell proliferation, crystal violet method; type: cell-based; settings: 60 μM; FIG. 11a, 11b
# Method: The compound according to the invention, and in particular the synthetic quercetin derivatives described and illustrated herein were investigated in vitro by using human tumour cells and assessing their impact on the tumour proliferative capacity, with regard to the tumours described above. In particular, the following human tumour cell lines were assessed experimentally: 1) HCT116, colon adenocarcinoma cells; 2) H1299, lung adenocarcinoma cells; 3) A375, melanoma cells, and 4) A431, squamous skin cell carcinoma; 5) 786-0, renal carcinoma cells; 6) PC3, prostate carcinoma cells; 7) BT549, mammary carcinoma cells; 8) CAL27, tongue carcinoma cells (belonging to the head-and-neck carcinomas); 9) HepG2, hepatocellular carcinoma cells; 10) PANC-1, pancreas carcinoma cells; 11) T24, bladder carcinoma cells; 12) OVCAR-3, ovarian carcinoma cells. In addition, a normal human cell line, WS1 (skin fibroblasts) was also treated with the novel synthetic compounds.
# (§1) Cell proliferation was quantified by the crystal violet method with a spectrophotometer. In short, after acquiring serial images (0, 24 and 48 hrs) with the EVOS XL Cell Imaging System microscope (Thermo Fisher Scientific), the cells imaged at 48 hrs were fixed with paraformaldehyde (4%) and stained with Crystal Violet (1%). Then, the specific absorbance (λ=590 nm) at 48 hrs was measured with a spectrophotometer (Infinite®200 PRO, Tecan). Data analysis was carried out by using ad-hoc Excel files for graphical representation and statistical processing (t-test). Moreover, the results obtained with Crystal Violet were confirmed by using another cell proliferation assessment method based on the real time cellular analyzer XCELLigence RTCA DP (ACEA Biosciences, Inc.). This tool allows cell growth to be monitored from electrical impedance-derived quantitative values (the so-called Cell Index) measured by tiny electrodes located at the base of the culture wells. Proliferation is monitored for several days (5-7) by setting a Cell Index per minute measure on the instrument. The data are analysed by processing various parameters calculated by the dedicated software, such as the cell duplication time, the slope and the Max Cell Index.
# Cell proliferation was quantitated spectrophotometrically by the crystal violet method.
# SCC cells (A431) = test: Cell proliferation, crystal violet method; type: cell-based, human; settings: 90 μM; FIG. 2a, 2b
# Method: as §1, with “The compound according to the invention, and in particular the synthetic quercetin derivatives described and illustrated herein were investigated in vitro by using human tumour cells and assessing their impact on the tumour proliferative capacity, with regard to the tumours described above. In particular, the following human tumour cell lines were assessed experimentally: 1) HCT116, colon adenocarcinoma cells; 2) H1299, lung adenocarcinoma cells; 3) A375, melanoma cells, and 4) A431, squamous skin cell carcinoma; 5) 786-0, renal carcinoma cells; 6) PC3, prostate carcinoma cells; 7) BT549, mammary carcinoma cells; 8) CAL27, tongue carcinoma cells (belonging to the head-and-neck carcinomas); 9) HepG2, hepatocellular carcinoma cells; 10) PANC-1, pancreas carcinoma cells; 11) T24, bladder carcinoma cells; 12) OVCAR-3, ovarian carcinoma cells. In addition, a normal human cell line, WS1 (skin fibroblasts) was also treated with the novel synthetic compounds. Cell proliferation” for “Cell proliferation”, “Cell Index. […] Cell proliferation was quantitated spectrophotometrically by the crystal violet method.” for “Cell Index.”
# [2] = system: human bladder carcinoma cells (T24); test: Cell proliferation, crystal violet method; type: cell-based; settings: 80 μM; FIG. 10a, 10b
# Method: as §1, with “The compound according to the invention, and in particular the synthetic quercetin derivatives described and illustrated herein were investigated in vitro by using human tumour cells and assessing their impact on the tumour proliferative capacity, with regard to the tumours described above. In particular, the following human tumour cell lines were assessed experimentally: 1) HCT116, colon adenocarcinoma cells; 2) H1299, lung adenocarcinoma cells; 3) A375, melanoma cells, and 4) A431, squamous skin cell carcinoma; 5) 786-0, renal carcinoma cells; 6) PC3, prostate carcinoma cells; 7) BT549, mammary carcinoma cells; 8) CAL27, tongue carcinoma cells (belonging to the head-and-neck carcinomas); 9) HepG2, hepatocellular carcinoma cells; 10) PANC-1, pancreas carcinoma cells; 11) T24, bladder carcinoma cells; 12) OVCAR-3, ovarian carcinoma cells. In addition, a normal human cell line, WS1 (skin fibroblasts) was also treated with the novel synthetic compounds. Cell proliferation” for “Cell proliferation”, “Cell Index. […] Cell proliferation was quantitated spectrophotometrically by the crystal violet method.” for “Cell Index.”
# [3] = system: human pancreatic carcinoma cells (PANC-1); test: Cell proliferation, crystal violet method; type: cell-based; settings: 80 μM; FIG. 9a, 9b
# Method: as §1, with “The compound according to the invention, and in particular the synthetic quercetin derivatives described and illustrated herein were investigated in vitro by using human tumour cells and assessing their impact on the tumour proliferative capacity, with regard to the tumours described above. In particular, the following human tumour cell lines were assessed experimentally: 1) HCT116, colon adenocarcinoma cells; 2) H1299, lung adenocarcinoma cells; 3) A375, melanoma cells, and 4) A431, squamous skin cell carcinoma; 5) 786-0, renal carcinoma cells; 6) PC3, prostate carcinoma cells; 7) BT549, mammary carcinoma cells; 8) CAL27, tongue carcinoma cells (belonging to the head-and-neck carcinomas); 9) HepG2, hepatocellular carcinoma cells; 10) PANC-1, pancreas carcinoma cells; 11) T24, bladder carcinoma cells; 12) OVCAR-3, ovarian carcinoma cells. In addition, a normal human cell line, WS1 (skin fibroblasts) was also treated with the novel synthetic compounds. Cell proliferation” for “Cell proliferation”, “Cell Index. […] Cell proliferation was quantitated spectrophotometrically by the crystal violet method.” for “Cell Index.”
# [4] = system: human prostate carcinoma cells (PC3); test: Cell proliferation, crystal violet method; type: cell-based; settings: 80 μM; FIG. 5a, 5b
# Method: as §1, with “The compound according to the invention, and in particular the synthetic quercetin derivatives described and illustrated herein were investigated in vitro by using human tumour cells and assessing their impact on the tumour proliferative capacity, with regard to the tumours described above. In particular, the following human tumour cell lines were assessed experimentally: 1) HCT116, colon adenocarcinoma cells; 2) H1299, lung adenocarcinoma cells; 3) A375, melanoma cells, and 4) A431, squamous skin cell carcinoma; 5) 786-0, renal carcinoma cells; 6) PC3, prostate carcinoma cells; 7) BT549, mammary carcinoma cells; 8) CAL27, tongue carcinoma cells (belonging to the head-and-neck carcinomas); 9) HepG2, hepatocellular carcinoma cells; 10) PANC-1, pancreas carcinoma cells; 11) T24, bladder carcinoma cells; 12) OVCAR-3, ovarian carcinoma cells. In addition, a normal human cell line, WS1 (skin fibroblasts) was also treated with the novel synthetic compounds. Cell proliferation” for “Cell proliferation”, “Cell Index. […] Cell proliferation was quantitated spectrophotometrically by the crystal violet method.” for “Cell Index.”
# [5] = system: human renal carcinoma cells (786-0); test: Cell proliferation, crystal violet method; type: cell-based; settings: 80 μM; FIG. 4a, 4b
# Method: as §1, with “The compound according to the invention, and in particular the synthetic quercetin derivatives described and illustrated herein were investigated in vitro by using human tumour cells and assessing their impact on the tumour proliferative capacity, with regard to the tumours described above. In particular, the following human tumour cell lines were assessed experimentally: 1) HCT116, colon adenocarcinoma cells; 2) H1299, lung adenocarcinoma cells; 3) A375, melanoma cells, and 4) A431, squamous skin cell carcinoma; 5) 786-0, renal carcinoma cells; 6) PC3, prostate carcinoma cells; 7) BT549, mammary carcinoma cells; 8) CAL27, tongue carcinoma cells (belonging to the head-and-neck carcinomas); 9) HepG2, hepatocellular carcinoma cells; 10) PANC-1, pancreas carcinoma cells; 11) T24, bladder carcinoma cells; 12) OVCAR-3, ovarian carcinoma cells. In addition, a normal human cell line, WS1 (skin fibroblasts) was also treated with the novel synthetic compounds. Cell proliferation” for “Cell proliferation”, “Cell Index. […] Cell proliferation was quantitated spectrophotometrically by the crystal violet method.” for “Cell Index.”
# [6] = system: human skin fibroblasts (WS1); test: Cell proliferation of normal cells, crystal violet method; type: cell-based; settings: at the indicated concentrations (not given); FIG. 17
# Method: The compound according to the invention, and in particular the synthetic quercetin derivatives described and illustrated herein were investigated in vitro by using human tumour cells and assessing their impact on the tumour proliferative capacity, with regard to the tumours described above. In particular, the following human tumour cell lines were assessed experimentally: 1) HCT116, colon adenocarcinoma cells; 2) H1299, lung adenocarcinoma cells; 3) A375, melanoma cells, and 4) A431, squamous skin cell carcinoma; 5) 786-0, renal carcinoma cells; 6) PC3, prostate carcinoma cells; 7) BT549, mammary carcinoma cells; 8) CAL27, tongue carcinoma cells (belonging to the head-and-neck carcinomas); 9) HepG2, hepatocellular carcinoma cells; 10) PANC-1, pancreas carcinoma cells; 11) T24, bladder carcinoma cells; 12) OVCAR-3, ovarian carcinoma cells. In addition, a normal human cell line, WS1 (skin fibroblasts) was also treated with the novel synthetic compounds. Cell proliferation was quantified by the crystal violet method with a spectrophotometer. In short, after acquiring serial images (0, 24 and 48 hrs) with the EVOS XL Cell Imaging System microscope (Thermo Fisher Scientific), the cells imaged at 48 hrs were fixed with paraformaldehyde (4%) and stained with Crystal Violet (1%). Then, the specific absorbance (λ=590 nm) at 48 hrs was measured with a spectrophotometer (Infinite®200 PRO, Tecan). Data analysis was carried out by using ad-hoc Excel files for graphical representation and statistical processing (t-test). […] This tool allows cell growth to be monitored from electrical impedance-derived quantitative values (the so-called Cell Index) measured by tiny electrodes located at the base of the culture wells. Proliferation is monitored for several days (5-7) by setting a Cell Index per minute measure on the instrument. The data are analysed by processing various parameters calculated by the dedicated software, such as the cell duplication time, the slope and the Max Cell Index.
# [7] = system: human melanoma cells (A375); test: Cell cycle progression, propidium iodide method, cytofluorimeter; type: cell-based; settings: 24 hrs; at the respective anti-proliferative IC50s; FIG. 19
# Method: Progression through the tumour cell cycle was assessed by the propidium iodide method and quantification of the cell DNA content with a cytofluorimeter. Briefly, after treatment (in duplicate) with the test compounds (24 hrs), the tumour cells were washed (with PBS), detached with trypsin-EDTA and pelleted by centrifugation (125 g for 6 min). The cells were then fixed in ethanol (70%) and stored in the freezer (−20° C.) for 1-3 days. After further washing (PBS) and treatment with RNAse (50 ug/ml), the cells were contacted (on ice in the dark; 30 min) with propidium iodide (50 μg/ml). FL2 and FL3 cytofluorimeter readings analysed approximately 50,000 cells (1 μl/second) per sample. Statistical analysis and graphical representation were performed by using t-tests and preset Excel property files.
# [8] = system: human colon carcinoma cells (HCT116); test: Intracellular ROS levels, DCFH2-DA probe; type: cell-based; settings: 2 hrs of treatment; at the respective anti-proliferative IC50s; DCF fluorescence in A.U.; FIG. 22 left
# Method: Intracellular ROS levels were measured in tumour cells by using the probe 2,7-dichlorodihydrofluorescein diacetate (DCFH2-DA) and a fluorescence spectrophotometer. DCFH2-DA diffuses readily through the cell membrane into the cytosolic space of the cell where it is hydrolyzed by intracellular esterases into the non-permeable DCFH2 product. DCFH2 oxidation by intracellular ROS (mainly H2O2, HO·, ROO·, NO· and ONOO) results in the production of intracellular fluorescent DCF, whose concentration is directly proportional to the levels of ROS in the cell. […] All the experiments were repeated at least 3 times. Data analysis was carried out with GraphPad Prism 6 for graphical representation and statistical processing (1-way ANOVA test).
SMILES,OVCAR-3 cell growth vs vehicle control [1],A431 cell growth vs vehicle control (SCC cells (A431)),T24 cell growth vs vehicle control [2],PANC-1 cell growth vs vehicle control [3],PC3 cell growth vs vehicle control [4],786-0 cell growth vs vehicle control [5],proliferation of normal human skin fibroblasts (WS1) vs vehicle control [6],halt of A375 tumour cells in S and/or G2 of the cell cycle [7],intracellular ROS levels in HCT116 cells [8]
"O=c1c(O)c(-c2ccc(O)c(O)c2)oc2cc(O)cc(O)c12 [quercetin, Quercetin, reference compound]",has no effect,has no effect,has no effect,has no effect,modest anti-proliferative effects,has no effect,do not disrupt,significantly halt,has no effect
O=c1cc(-c2ccc(O)cc2)oc2cc(O)cc(O)c12 [apigenin],,,,,,,significantly inhibits,,
